The text below walks through data of BindingDB's records for doi:10.7270/Q2CZ35ND (Burnham Center For Chemical Genomics, 2011).

Where only a bound is given, the exact number is not on record here.

The target in this experiment is DNA dC->dU-editing enzyme APOBEC-3A (Homo sapiens, UniProt P31941). The experiment is described as follows: A3A deaminase inhibition for selectivity – biochemical, dose response (AID 504722). The conditions noted are these: 25 °C.
Sequence of DNA dC->dU-editing enzyme APOBEC-3A (P31941 whole entry): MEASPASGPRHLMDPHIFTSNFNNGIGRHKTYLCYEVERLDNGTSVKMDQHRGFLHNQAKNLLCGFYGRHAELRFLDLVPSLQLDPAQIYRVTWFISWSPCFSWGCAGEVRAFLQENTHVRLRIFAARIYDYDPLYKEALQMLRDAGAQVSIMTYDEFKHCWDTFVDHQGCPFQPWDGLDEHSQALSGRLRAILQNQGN
In the case of `CCOc1ccc(-n2c(O)cc(Sc3nnc(-c4ccccc4)[nH]3)c2O)cc1` [MLS000765380], the IC50 (as a rule, the concentration that gives 50% inhibition) was > 100 µM.
The result for `COc1ccc(-n2c(O)cc(Sc3nnc(-c4ccccc4)[nH]3)c2O)cc1` [1-(4-methoxyphenyl)-3-[(5-phenyl-1H-1,2,4-triazol-3-yl)thio]pyrrolidine-2,5-dione] reads > 100 µM; that for `OCC12C=CC(O1)c1c2c(O)n(-c2ccccc2-c2ccccc2)c1O` (stereo not drawn) [7-(hydroxymethyl)-2-(2-phenylphenyl)-4,7a-dihydro-3aH-octahydro-1H-4,7-epoxyisoindole-1,3-dione], > 100 µM.
